From patent US8293511B2, “Production of β-Lactam antibiotics” (DSM IP Assets B.V., priority 2006, dated 2012)

What was measured:
[1] = system: Escherichia coli ESS (DS10031); assay: Bioassay development: growth in 2xTY medium with serial dilutions of antibiotic, OD600; assay type: cell-based; conditions: 16 hours
Description: (§1) The bacterial strains Escherichia coli ESS, Bacillus subtilis ATCC6633 and Micrococcus luteus ATCC9341 were grown overnight in 2×TY-medium at 30° C. and 280 rpm. After 16 hours of growth, the OD^600 was measured. Typically, the OD^600 amounts 5.0, ranging from 2.0 to 8.0.
(§2) A solution of amoxicillin was made at a concentration of 7 mg/ml. Subsequently, serial dilutions were made ranging from 1 mg/l down to 0.001 mg/l. MilliQ water served as a negative control.
(§3) In a 96 wells microplate, 25 μl of the serial dilutions were pipetted in the wells. Each microplate was prepared in duplicate. The overnight bacterial cultures were diluted in fresh 2×TY-medium to a final OD^600 of 0.01. To each well, 150 μl of the diluted bacterial cultures was added. The microplates were covered with a lid, and incubated overnight at 25° C. and the duplicate microplate at 37° C.
(§4) After 16 hours of incubation, the OD^600 was read in a microplate reader. From the results, the concentration of amoxicillin still allowing uninhibited growth of the test microorganisms can be read.
(§5) A solution of ampicillin was made at a concentration of 7 mg/ml. Subsequently, serial dilutions were made ranging from 1 mg/l down to 0.001 mg/l. MilliQ water served as a negative control.
as §3, with “gas permeable adhesive seal,” for “lid,”
(§6) After 16 hours of incubation, the OD^600 was read in a microplate reader. From the results, the concentration of ampicillin still allowing uninhibited growth of the test microorganisms can be read.

[2] = system: Bacillus subtilis ATCC6633; assay: as above; assay type: cell-based; conditions: 16 hours
Description: as §1, §2, §3, §4, §5
as §3, with “gas permeable adhesive seal,” for “lid,”
as §6

[3] = system: Micrococcus luteus ATCC9341; assay: as above; assay type: cell-based; conditions: 16 hours
Description: as §1, §2, §3, §4, §5
as §3, with “gas permeable adhesive seal,” for “lid,”
as §6

IPNS = conditions: Huffman et al. J. Med. Chem. 1992; cited from earlier work

Compound: CC1(C)S[C@@H]2[C@H](NC(=O)[C@H](N)c3ccccc3)C(=O)N2[C@H]1C(=O)O [Ampicillin, ampicillin]
- Concentration of ampicillin still allowing uninhibited growth in 2xTY medium ([1]; at 25° C.): 0.05 mg/L
- Concentration of ampicillin still allowing uninhibited growth in 2xTY medium ([1]; at 37° C.): 0.05 mg/L
- Concentration of ampicillin still allowing uninhibited growth in 2xTY medium ([2]; at 25° C.): 0.5 mg/L
- Concentration of ampicillin still allowing uninhibited growth in 2xTY medium ([2]; at 37° C.): 2.5 mg/L
- Concentration of ampicillin still allowing uninhibited growth in 2xTY medium ([3]; at 25° C.): 0.001 mg/L
- Concentration of ampicillin still allowing uninhibited growth in 2xTY medium ([3]; at 37° C.): 0.002 mg/L

Compound: CC(C)[C@@H](NC(=O)[C@H](CS)NC(=O)Cc1ccc(O)cc1)C(=O)O [p-hydroxyphenylacetyl-L-cysteinyl-D-valine]
- Antibiotic activity after treatment of the substrate with IPNS (IPNS): not to result in antibiotic activity

Compound: CC1(C)S[C@@H]2[C@H](NC(=O)[C@H](N)c3ccc(O)cc3)C(=O)N2[C@H]1C(=O)O [Amoxicillin, amoxicillin]
- Concentration of amoxicillin still allowing uninhibited growth in 2xTY medium ([1]; at 25° C.): 0.1 mg/L
- Concentration of amoxicillin still allowing uninhibited growth in 2xTY medium ([1]; at 37° C.): 0.1 mg/L
- Concentration of amoxicillin still allowing uninhibited growth in 2xTY medium ([2]; at 25° C.): 1.0 mg/L
- Concentration of amoxicillin still allowing uninhibited growth in 2xTY medium ([2]; at 37° C.): 5 mg/L
- Concentration of amoxicillin still allowing uninhibited growth in 2xTY medium ([3]; at 25° C.): 0.001 mg/L
- Concentration of amoxicillin still allowing uninhibited growth in 2xTY medium ([3]; at 37° C.): 0.002 mg/L

Compound: m-COOH-DL-phenylglycyl-L-cysteinyl-D-valine
- Antibiotic activity after treatment of the substrate with IPNS (IPNS): not to result in antibiotic activity
